“Also recorded” adds a separate entry of the source.
Legend:
[1] = target: ColQ1-CU (Bacillus cereus, UniProt B9J3S4); experiment: biochemical; design: species or system B. cereus strain Q1
[2] = target: ColQ1-FL (Bacillus cereus, UniProt B9J3S4); format: biochemical; conditions: 12.5–1.5 μM tested, SDS-PAGE
[3] = system: B. cereus collagenases released in the NHDF infection model; format: cell-based, B. cereus AH187
[4] = system: NHDF cells infected with B. cereus; experiment: NHDF infection model, cell morphology/attachment and fibrillar collagen (picrosirius red); format: cell-based, human; conditions: B. cereus infection, 5 h

Chain of ColQ1-CU (B9J3S4 94-765 limits assumed): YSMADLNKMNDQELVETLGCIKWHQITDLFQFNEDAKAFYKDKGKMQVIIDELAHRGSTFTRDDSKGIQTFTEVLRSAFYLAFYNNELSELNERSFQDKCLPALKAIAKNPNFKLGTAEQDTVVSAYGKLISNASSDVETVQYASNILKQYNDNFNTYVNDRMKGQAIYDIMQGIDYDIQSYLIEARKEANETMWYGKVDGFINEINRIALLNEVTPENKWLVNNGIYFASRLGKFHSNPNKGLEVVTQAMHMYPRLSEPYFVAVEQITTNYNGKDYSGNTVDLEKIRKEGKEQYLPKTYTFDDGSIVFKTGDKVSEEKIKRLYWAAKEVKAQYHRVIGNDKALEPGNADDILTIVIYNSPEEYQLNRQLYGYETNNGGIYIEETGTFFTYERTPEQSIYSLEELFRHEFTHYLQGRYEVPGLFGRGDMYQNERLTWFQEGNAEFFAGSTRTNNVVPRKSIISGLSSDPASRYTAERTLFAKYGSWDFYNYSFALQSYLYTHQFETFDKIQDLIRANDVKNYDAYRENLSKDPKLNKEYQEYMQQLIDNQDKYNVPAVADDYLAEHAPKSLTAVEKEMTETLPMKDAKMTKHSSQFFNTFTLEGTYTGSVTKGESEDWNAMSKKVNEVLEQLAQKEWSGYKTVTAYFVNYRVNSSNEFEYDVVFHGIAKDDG
Chain of ColQ1-FL (B9J3S4 94-965 limits assumed): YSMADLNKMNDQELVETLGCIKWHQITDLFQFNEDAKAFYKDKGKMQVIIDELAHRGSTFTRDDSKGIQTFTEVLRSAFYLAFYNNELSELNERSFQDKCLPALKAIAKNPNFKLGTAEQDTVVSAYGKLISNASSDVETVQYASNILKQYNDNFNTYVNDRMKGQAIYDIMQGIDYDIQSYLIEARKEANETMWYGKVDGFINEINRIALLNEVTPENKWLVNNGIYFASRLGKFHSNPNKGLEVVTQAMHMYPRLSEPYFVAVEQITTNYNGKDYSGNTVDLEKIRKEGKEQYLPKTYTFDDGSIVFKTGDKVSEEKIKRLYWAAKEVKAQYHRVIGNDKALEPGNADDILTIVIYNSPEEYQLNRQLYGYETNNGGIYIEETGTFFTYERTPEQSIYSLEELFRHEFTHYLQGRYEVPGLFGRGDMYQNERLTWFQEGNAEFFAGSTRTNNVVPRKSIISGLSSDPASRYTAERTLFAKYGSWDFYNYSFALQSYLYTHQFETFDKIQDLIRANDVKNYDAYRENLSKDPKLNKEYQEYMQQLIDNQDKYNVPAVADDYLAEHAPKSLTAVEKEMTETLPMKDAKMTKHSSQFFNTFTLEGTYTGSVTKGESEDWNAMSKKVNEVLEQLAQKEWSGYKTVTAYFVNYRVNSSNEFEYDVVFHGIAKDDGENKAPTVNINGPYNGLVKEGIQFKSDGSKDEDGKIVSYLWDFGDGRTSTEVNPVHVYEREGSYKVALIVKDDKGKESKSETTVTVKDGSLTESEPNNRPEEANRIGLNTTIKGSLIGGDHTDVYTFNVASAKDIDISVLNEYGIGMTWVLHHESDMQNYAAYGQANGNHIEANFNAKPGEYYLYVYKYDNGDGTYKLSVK

Row | SMILES | inhibition at 100 µM [1] [%] | Inhibition (%) ([1]; 100 μM) | further results
1 | O=P(O)(O)C(Cl)(Cl)P(=O)(O)O [Clodronate disodium, reference compound] | < 5 |  | 
2 | O=P(O)(O)c1nc2ccccc2nc1P(=O)(O)O [Compound 7, Quinoxaline-2,3-diylbis(phosphonic acid)] | 40 ± 7 |  | 
3 | CCOP(=O)(OCC)c1nc2ccccc2nc1P(=O)(OCC)OCC [Compound 7c, Tetraethyl Quinoxaline-2,3-diylbis(phosphonate)] | < 5 | 7c; O=P(OCC)(OCC)C2=NC1=CC=CC=C1N=C2P(OCC)(OCC)=O; 3 ± 2% | 
4 | O=P(O)(O)c1nc2ccc(F)cc2nc1P(=O)(O)O [Compound 8, (6-Fluoroquinoxaline-2,3-diyl)bis(phosphonic acid)] |  | 8; O=P(O)(O)C2=NC1=CC(F)=CC=C1N=C2P(O)(O)=O; 38 ± 3% | 
5 | O=P(O)(O)c1nc2ccc(Cl)cc2nc1P(=O)(O)O [Compound 9, (6-Chloroquinoxaline-2,3-diyl)bis(phosphonic acid)] |  |  | IC50 [1]: 4 ± 0.6 µM
6 | CCOP(=O)(OCC)c1nc2ccc(C)cc2nc1P(=O)(OCC)OCC [Compound 11c, tetraethyl (6-methylquinoxaline-2,3-diyl)bis(phosphonate)] | < 5 | 11c; O=P(OCC)(OCC)C2=NC1=CC(C)=CC=C1N=C2P(OCC)(OCC)=O; 8 ± 4% | 
7 | COc1ccc2nc(P(=O)(O)O)c(P(=O)(O)O)nc2c1 [Compound 12, (6-Methoxyquinoxaline-2,3-diyl)bis(phosphonic acid)] | 23 ± 6 |  | 
8 | CCOP(=O)(OCC)c1nc2ccc(OC)cc2nc1P(=O)(OCC)OCC [Compound 12c, tetraethyl (6-methoxyquinoxaline-2,3-diyl)bis(phosphonate)] |  | 12c; O=P(OCC)(OCC)C2=NC1=CC(OC)=CC=C1N=C2P(OCC)(OCC)=O; 0 ± 2% | % Inhibition ([1]; 100 μM): n.i. (key: n.i.: no inhibition (percent inhibition < 5%))
9 | O=c1[nH]c2cc(Cl)c(Cl)cc2nc1P(=O)(O)O [Compound 16, (6,7-Dichloro-3-oxo-3,4-dihydroquinoxalin-2-yl)phosphonic Acid] | < 5 | 16; O=P(O)(O)C2=NC1=CC(Cl)=C(Cl)C=C1NC2=O; 5 ± 2% | Protection of Col I chains from cleavage by ColQ1-FL [2]: severe degradation was visible at all tested concentrations
10 | CC(=O)Nc1cccc(OCc2cn(CCNC(=O)C(CC(C)C)C(=O)NO)nn2)c1 (stereo not drawn) [Compound 28, N-[2-[4-[(3-Acetamidophenoxy)methyl]triazol-1-yl]ethyl]-2-(hydroxycarbamoyl)-4-methyl-pentanamide] |  |  | Inhibitory effect on gelatinolytic activity of secreted collagenases [3]: no inhibitory effect on the collagenase in the zymography at all tested concentrations; also recorded: no inhibition of the collagenase in the gelatin zymography was detected; Protection of Col I chains from cleavage by ColQ1-FL [2]: severe degradation was visible at all tested concentrations; IC50 [1]: 35 ± 1 µM; Effect on cell morphology and ECM collagen content of infected NHDF cells [4]: neither able to rescue cell morphology nor able to maintain the collagen content of the ECM
11 | CC(C)CC(C(=O)NO)C(=O)NCCn1cc(COc2ccccc2F)nn1 (stereo not drawn) [Compound 30, N-[2-[4-[(2-Fluorophenoxy)methyl]triazol-1-yl]ethyl]-2-(hydroxycarbamoyl)-4-methyl-pentanamide] | 92 |  | Inhibitory effect on gelatinolytic activity of secreted collagenases [3]: no inhibitory effect on the collagenase in the zymography at all tested concentrations; IC50 [1]: 16.2 ± 0.8 µM
12 | CCCCCN(C)CCC(O)(P(=O)(O)O)P(=O)(O)O [Ibandronate sodium, reference compound] | < 5 |  | 
13 | NCCCCCC(O)(P(=O)(O)O)P(=O)(O)O [Neridronate, reference compound] | < 5 |  | 
14 | O=P(O)(O)C(O)(Cc1cccnc1)P(=O)(O)O [Risedronate sodium, reference compound] | < 5 |  | 

Source: article PMC9574867, “Discovery and Characterization of Synthesized and FDA-Approved Inhibitors of Clostridial and Bacillary Collagenases” (Journal of Medicinal Chemistry, 2022)
